Measurements reported in patent US10195204B2, “Methods of treating hemoglobinopathies” (DUKE UNIVERSITY, priority 2011, dated 2019).
Read-outs that look alike come from different tables or passages of the source.

Experiments:
[1] = test system: human SS RBC adhesion to vascular endothelium and vaso-occlusion
Experimental: All animal experiments were carried out in accordance with protocols approved by the Duke University Animal Care and Use Committee. Female athymic homozygous nude mice (nu-/nu-) were between 8-12 weeks of age (Charles River Laboratories, Wilmington, Mass.).
General anesthesia was achieved by intra-peritoneal injection of 100 mg/kg of ketamine (Abbott Laboratory, Chicago, Ill.) and 10 mg/kg of xylazine (Bayer, Shawnee Mission, Kans.). A double-sided titanium frame window chamber was surgically implanted into the dorsal skin fold under sterile conditions using a laminar flow hood. Surgery involved carefully removing the epidermal and dermal layers of one side of a dorsal skin fold, exposing the blood vessels of the subcutaneous tissue adjacent to the striated muscles of the opposing skin fold, and then securing the two sides of the chamber to the skin using stainless steel screws and sutures. A glass window was placed in the chamber to cover the exposed tissue and secured with a snap ring. Subsequently, animals were kept at 32-34° C. until in vivo studies were performed 3 days post-surgery.
Murine recombinant TNF-α was dissolved in normal saline at a concentration of 0.1 mg/mL and mice bearing dorsal-skin window chamber implants were given a single intraperitoneal (IP) injection of 20 μg/kg TNF-α and control animals received same volume of normal saline. […] Thirty minutes later, labeled human SS RBCs (300 μl hematocrit (Hct) 50% in PBS with Ca^2+ and Mg^2+) were then infused. […] Animals were placed on the stage of an Axoplan microscope (Carl Zeiss, Thornwood, N.Y.); temperature was maintained at 37° C. using a thermostatically controlled heating pad. […] Microcirculatory events and cell adhesion were simultaneously recorded using a Trinitron Color video monitor (PVM-1353 MD, Sony) and JVC videocassette recorder (BR-53784, VCR King, Durham, N.C.) connected to a digital video camera C2400 (Hamamatsu Photonics K.K., Japan). Arterioles were distinguished from venules based on: 1) observation of divergent flow as opposed to convergent flow; 2) birefringent appearance of vessel walls using transillumination, which is characteristic of arteriolar vascular smooth muscle; and 3) relatively straight vessel trajectory without evidence of tortuosity. Cell adherence was quantitated by considering cells attached to the vessel walls and immobile for 1 minute. The percentage of the length of vessels with diameters≤25 μm or >25 μm, occupied by SS RBCs was quantified as: % venular length occupied by SS RBCs=length of vessel wall with adherent cells/total length of the vessel segments analyzed×100.

[2] = test system: PMN adhesion to non-activated HUVECs; assay: Adhesion to HUVECs of PMNs co-incubated with epinephrine-stimulated SS RBCs; type: cell-based, human; details: SS RBCs pre-incubated with inhibitor for 1 hour, then 20 nM epinephrine 1 min
Experimental: The cells were then washed prior to admixture with fluorescently-labeled native polymorphonuclear cells (PMNs) obtained from healthy donors at a RBC:PMN ratio of 10:1. After co-incubation for 30 minutes at 37° C., cells mixtures were assayed for their ability to adhere to non-activated HUVECs. […] Downregulation of RBC adhesion receptor activity by targeting ERK may not only decrease SS RBC adhesion to the endothelium but also reduce RBC-stimulated leukocyte activation.

[3] = test system: human SS RBC adhesion in inflamed venules and vaso-occlusion; assay: Intravital microscopy in TNF-α-treated nude mice infused with human SS RBCs treated ex vivo with MEK inhibitor; details: for percentage of venular length occupied by treated SS RBCs: compared to sham
Source text: For some in vivo adhesion studies, packed SS RBCs were fluorescently labeled with the dye Dil (Molecular Probes Inc., Eugene, Oreg.), following the manufacturer's instructions. […] Cell morphology was checked by microscopy.

[4] = 2 mg/kg U0126 in 0.4% DMSO i.v. 30 min prior to RBC infusion
[5] = SS RBCs treated ex vivo with 10 μM inhibitor for 1 hour, n=5

Compound: N#CC(=C(/N)Sc1ccccc1N)/C(C#N)=C(\N)Sc1ccccc1N [U0126]
- vaso-occlusion ([1]; 0.2 mg/kg U0126 in 0.04% DMSO i.v. 30 minutes prior to RBC infusion): no apparent vaso-occulsion
- SS RBC adhesion to vascular endothelium [1, 4]: very little adhesion
- vaso-occlusion [1, 4]: no apparent vaso-occlusion
- percentage venular length occupied by SS RBCs ([1]; U0126 at 0.2 mg/kg, vessel diameter >25 μm): did not significantly reduce
- percentage venular length occupied by SS RBCs ([1]; U0126 at 0.2 and 2 mg/kg, vessels 25 μm in diameter, vs placebo): significant decrease
- ability of epinephrine-activated SS RBCs to promote neutrophil (PMN) adhesion to HUVECs [2]: significantly decreased
- human SS RBC adhesion in inflamed venules [3, 5]: dramatically decreased
- vessel obstruction [3, 5]: prevented vessel obstruction
- percentage of venular length occupied by treated SS RBCs ([3]; vessels 25 μm in diameter): significantly decreased
- percentage of venular length occupied by treated SS RBCs ([3]; vessels with a diameter >25 μm): significantly decreased
